We go through one substance from paper PMC5408651 (Journal of visualized experiments : JoVE, 2017).

In one assay the test system is neutrophils (NIMP). The settings on record: Tsk/+ mice, IRF5D 1 mg/kg/d subcutaneously, 21 d; Tsk/+ vs. Tsk/+ + IRF5D p<0.025; mean ± SD, n=3, 10 images per antibody; ref [21]; cited from earlier work.
In assay [1] the test system is monocytes/macrophages (CD64). The conditions noted are these: Tsk/+ mice, IRF5D 1 mg/kg/d subcutaneously, 21 d; Tsk/+ vs. Tsk/+ + IRF5D p<0.025; mean ± SD, n=3, 10 images per antibody; ref [21]; cited from earlier work.
Another assay has as its system extracellular matrix. As to the kind of experiment: alterations in extracellular matrix of tight-skin mouse. The class given is in vivo, Tsk/+ mice. The settings on record: tight-skin mouse (Tsk/+); abstract statement, no data shown.

Consider Ac-ELDWDADDIRLQIDNPD-NH2 [IRF5D], for which the “number of neutrophils (NIMP) in the heart” value with neutrophils (NIMP) is “decreased”. Besides, the “number of monocytes/macrophages (CD64) in the heart” value in assay [1] is recorded as “decreased”. Moreover, the “alterations in extracellular matrix” value in the assay with extracellular matrix was “reduced alterations in extracellular matrix”.
